Measurements as given in patent US20240391923A1, “METHIONINE ADENOSYLTRANSFERASE 2A INHIBITOR FOR TREATING MTAP DELETION-TYPE CANCER” (SUZHOU GENHOUSE BIO CO., LTD., priority 2022, published 2024).
Read-outs that look alike come from different tables or passages of the source.

How the values were obtained:
[1] = target: MAT2A recombinant protein (Homo sapiens, UniProt P31153); test: MAT2A inhibitory activity (malachite green colorimetric enzyme assay); assay type: biochemical
How it was run: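 Recombinant human MAT2A with L-methionine and ATP in 50 mM HEPES pH 7.5, 50 mM KCl, 10 mM MgCl2, 10 mM DTT, 60 min at room temperature. Phosphate released detected by malachite green reagent (15 min) at 630 nm. Ten-point 1:3 series from 1000 nM final; IC50 by variable-slope non-linear regression.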

[2] = test system: SDMA in HCT116-MTAP-knockout cell line; test: Cell symmetric dimethylarginine (SDMA) test, In-cell Western, HCT116-MTAP-knockout; assay type: cell-based; conditions: Homo sapiens, 96 h
[3] = test system: SDMA in human colon cancer cell line HCT116; test: Cell symmetric dimethylarginine (SDMA) test, In-cell Western, HCT116 (MTAP wild-type); assay type: cell-based; conditions: Homo sapiens, HCT-116, 96 h
How it was run: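 HCT116 cells treated 4 days at 37° C with compound, top concentration 6 μM, 1:4 dilutions, 6 points, versus DMSO. Fixed cells stained for SDMA with DRAQ5 normalisation; 800/700 nm ratio after background subtraction fitted by non-linear regression for IC50.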

Hut-78 cell strain = test: Tumor cell proliferation inhibition assay (CellTiter-Glo), Hut-78; assay type: cell-based; conditions: Hut-78 cells, 5-day treatment
Procedure: (§1) After the HCT116-MTAP-knockout (−/−) cell strain, the HCT116-MTAP wild-type(+/+)-cell strain, the DOHH-2 cell strain, or the Hut-78 cell strain was treated with the test compound for 5 days, the ATP level was measured using a CellTiter-Glo kit of Promega to evaluate the inhibition of the test compound against the growth of the tumor cell strain.
(§2) In the present application, the HCT116-MTAP-knockout (−/−) cell strain, the HCT116-MTAP wild-type (+/+)-cell strain, the DOHH-2 cell strain, or the Hut-78 cell strain was seeded into a 96-well cell culture plate at an appropriate cell density. After 24 h, the cells were treated using the test compounds diluted 1:3 fold at the highest concentration of 10 μM for 10 gradients, and a DMSO treatment group was set up separately. The cells were cultured in a 37° C./5% CO2 incubator for 5 days.

[4] = test system: HCT116-MTAP-knockout (−/−) cell strain; test: Tumor cell proliferation inhibition assay (CellTiter-Glo), HCT116-MTAP-knockout (-/-); assay type: cell-based; conditions: Homo sapiens, 120 h, 5-day treatment
Procedure: as §1, §2

[5] = test system: HCT116-MTAP wild-type (+/+)-cell strain; test: Tumor cell proliferation inhibition assay (CellTiter-Glo), HCT116-MTAP wild-type (+/+); assay type: cell-based; conditions: Homo sapiens, 120 h, 5-day treatment
Procedure: as §1, §2

[6] = Pharmacokinetic test in mice (IV and PO); assay type: in vivo; conditions: BALB/c mice; for AUC (in words) / half-life (T½) (in words): summary of Table 7; for AUC / clearance / bioavailability / half-life / Vd: mouse, plasma; for half-life: read-out: T½ (converted); for Vd: read-out: Vz
[7] = IC50 score class, read-out: MAT2A Inhibition (score)
[8] = IC50 score class, read-out: Cell 96 h SDMA Inhibition (HCT116-MTAP−/−) (score)
[9] = read-out: Cell 96 h SDMA Inhibition (HCT116-MTAP−/−)
[10] = IC50 score class, read-out: Cell 96 h SDMA Inhibition (HCT116-MTAP+/+) (score)
[11] = read-out: Cell 96 h SDMA inhibition (HCT116-MTAP+/+)
[12] = Homo sapiens, HuT78, 120 h, IC50 score, read-out: Tumor cell 5-day relative growth inhibition (Hut-78) (nM), score
[13] = Homo sapiens, HuT78, 120 h, IC50 value, read-out: Tumor cell 5-day relative growth inhibition (Hut-78)
[14] = HCT116-MTAP-knockout (−/−) cells, IC50 score, read-out: Tumor cell 5-day relative growth inhibition (HCT116-MTAP−/−) (nM), score
[15] = HCT116-MTAP-knockout (−/−) cells, IC50 value, read-out: Tumor cell 5-day relative growth inhibition (HCT116-MTAP−/−)
[16] = HCT116-MTAP wild-type (+/+) cells, IC50 score, read-out: Tumor cell 5-day relative growth inhibition (HCT116-MTAP+/+) (nM), score
[17] = HCT116-MTAP wild-type (+/+) cells, IC50 value, read-out: Tumor cell 5-day relative growth inhibition (HCT116-MTAP+/+)

Sequence of MAT2A recombinant protein (P31153 whole entry): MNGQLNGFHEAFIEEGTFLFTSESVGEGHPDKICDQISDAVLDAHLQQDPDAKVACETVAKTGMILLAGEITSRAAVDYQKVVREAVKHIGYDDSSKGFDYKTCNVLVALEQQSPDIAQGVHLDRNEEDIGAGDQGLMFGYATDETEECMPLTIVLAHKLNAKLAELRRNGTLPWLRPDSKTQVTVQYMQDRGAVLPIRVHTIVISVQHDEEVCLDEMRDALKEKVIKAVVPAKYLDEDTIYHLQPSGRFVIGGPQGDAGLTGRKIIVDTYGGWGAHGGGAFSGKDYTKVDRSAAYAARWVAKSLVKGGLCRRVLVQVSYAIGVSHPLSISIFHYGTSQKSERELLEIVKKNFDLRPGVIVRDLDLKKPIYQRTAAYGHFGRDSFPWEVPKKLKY

| Structure (SMILES) | IC50 [1, 7] [nM] | IC50 ([1]; read-out: MAT2A Inhibition) [nM] | IC50 [2, 8] [nM] | IC50 [2, 9] [nM] | IC50 [3, 10] [nM] | IC50 [3, 11] [nM] | IC50 (Hut-78 cell strain; [12]) [nM] | IC50 (Hut-78 cell strain; [13]) [nM] | further results |
| --- | --- | --- | --- | --- | --- | --- | --- | --- | --- |
| Cn1cc2c(n1)c(=O)n(-c1ccnn1C)c1cc(Cl)ccc21 [Compound B58] | < 100 | 55.2 | 200 to 1000 | 267 | 1000 to 3000 | 1190 | < 500 | 206 |  |
| Cc1ncccc1-n1c(=O)c2[nH]ncc2c2ccc(Cl)cc21 [Compound B103] | < 100 | 54.8 | < 200 | 27.8 | < 200 | 53.9 | < 500 | 14.6 |  |
| Cn1cc2c(n1)c(=O)n(Cc1ccn[nH]1)c1nc(C(F)(F)F)ccc21 [Compound B123] | < 100 | 53.7 |  |  |  |  | ≥ 2000 | > 2000 |  |
| Cc1cc(-n2c(=O)c3nn(C)cc3c3ccc(Cl)cc32)n(C)n1 [Compound B175] | < 100 | 80.5 | 200 to 1000 | 993 | > 3000 | 6980 | ≥ 2000 | 2040 |  |
| COc1cc(Cl)cc2c1c1cn(C)nc1c(=O)n2-c1cccnc1 [Compound B176] | < 100 | 24.6 | 200 to 1000 | 263 | 1000 to 3000 | 1320 | 500 to 2000 | 985 |  |
| Cn1cc2c(n1)c(=O)n(-c1ccccc1)c1nc(C(F)(F)F)ccc21 [Compound B177] | < 100 | 24.3 | 200 to 1000 | 300 | 200 to 1000 | 858 | 500 to 2000 | 866 |  |
| Cc1ncccc1-n1c(=O)c2nn(C)cc2c2ccc(C(F)(F)F)nc21 [Compound B179] |  |  |  |  |  |  |  |  | IC50 (Hut-78 cell strain; IC50 score, read-out: Tumor cell 5-day relative growth inhibition (Hut-78) (nM), score): ≥ 2000 nM; IC50 (Hut-78 cell strain; IC50 value, read-out: Tumor cell 5-day relative growth inhibition (Hut-78)): 7990 nM |
| Cn1cc2c(n1)c(=O)n(-c1cccnc1C1CC1)c1nc(C(F)(F)F)ccc21 [Compound B183] |  |  | < 200 | 47.9 | < 200 | 130 | < 500 | 108 |  |
| Cn1cc2c(n1)c(=O)n(-c1cccc(C#N)c1)c1nc(C(F)(F)F)ccc21 [Compound B192] | < 100 | 26.9 | 200 to 1000 | 255 | 1000 to 3000 | 2450 | < 500 | 378 |  |
| Cn1cc2c(n1)c(=O)n(-c1cccc(F)c1)c1nc(C(F)(F)F)ccc21 [Compound B193] | < 100 | 25 | 200 to 1000 | 387 | 1000 to 3000 | 2110 | 500 to 2000 | 696 |  |
| Cn1cc2c(n1)c(=O)n(-c1cccnc1Cl)c1nc(C(F)(F)F)ccc21 [Compound B196] | < 100 | 45.1 | < 200 | 25.3 | 200 to 1000 | 691 | < 500 | 9.3 |  |
| COc1ncccc1-n1c(=O)c2nn(C)cc2c2ccc(C(F)(F)F)nc21 [Compound B203] | < 100 | 51.4 | < 200 | 66.6 | 200 to 1000 | 634 | < 500 | 40.4 |  |
| O=c1c2nn(C3CCOC3)cc2c2ccc(C(F)(F)F)nc2n1-c1cccnc1 (stereo not shown) [Compound B204] | < 100 | 67.4 | 1000 to 3000 | 1850 | 1000 to 3000 | 1190 | < 500 | 312 |  |
| Cn1cc2c(n1)c(=O)n(-c1cccnc1C#N)c1nc(C(F)(F)F)ccc21 [Compound B207] |  |  | < 200 | 106 | 200 to 1000 | 495 | < 500 | 179 |  |
| O=c1c2nn(C(F)F)cc2c2ccc(C(F)(F)F)nc2n1-c1cccc2[nH]ncc12 [Compound B245] | < 100 | 11 | < 200 | 110 | > 3000 | 7200 |  |  | IC50 [4, 14]: < 500 nM; IC50 [4, 15]: 242 nM; IC50 [5, 16]: 500 to 2000 nM; IC50 [5, 17]: 1100 nM; AUC (in words) [6]: relatively high; half-life (T½) (in words) [6]: relatively long; AUC ([6]; IV 2 mg/kg): 200 µM·h; clearance ([6]; IV 2 mg/kg): 0.3 mL/min/kg; bioavailability ([6]; IV 2 mg/kg, PO 10 mg/kg): 80%; half-life ([6]; IV 2 mg/kg): 10.8 h; Vd ([6]; IV 2 mg/kg): 0.3 L/kg; AUC ([6]; PO 10 mg/kg): 807 µM·h; half-life ([6]; PO 10 mg/kg): 18 h |
| Cc1c2c(nn1C(F)F)c(=O)n(-c1cccc3[nH]ncc13)c1nc(C(F)(F)F)ccc21 [Compound B254] | < 100 | 23.7 | < 200 | 67 |  |  |  |  | IC50 [4, 14]: < 500 nM; IC50 [4, 15]: 382 nM; IC50 [5, 16]: 500 to 2000 nM; IC50 [5, 17]: 1630 nM; AUC (in words) [6]: relatively high; half-life (T½) (in words) [6]: relatively long; AUC ([6]; IV 2 mg/kg): 245 µM·h; clearance ([6]; IV 2 mg/kg): 0.317 mL/min/kg; bioavailability ([6]; IV 2 mg/kg, PO 10 mg/kg): 126%; half-life ([6]; IV 2 mg/kg): 5.73 h; Vd ([6]; IV 2 mg/kg): 0.2 L/kg; AUC ([6]; PO 10 mg/kg): 1470 µM·h; half-life ([6]; PO 10 mg/kg): 5.79 h |
| [2H]C([2H])([2H])n1cc2c(n1)c(=O)n(-c1cccc3[nH]ncc13)c1nc(C(F)(F)F)ccc21 [Compound B256] | < 100 | 16.9 | < 200 | 28 |  |  |  |  | IC50 [4, 14]: < 500 nM; IC50 [4, 15]: 29.5 nM; IC50 [5, 16]: 500 to 2000 nM; IC50 [5, 17]: 577 nM; AUC (in words) [6]: relatively high; half-life (T½) (in words) [6]: relatively long; AUC ([6]; IV 2 mg/kg): 37.8 µM·h; clearance ([6]; IV 2 mg/kg): 2.28 mL/min/kg; bioavailability ([6]; IV 2 mg/kg, PO 10 mg/kg): 175%; half-life ([6]; IV 2 mg/kg): 5.28 h; Vd ([6]; IV 2 mg/kg): 1 L/kg; AUC ([6]; PO 10 mg/kg): 331 µM·h; half-life ([6]; PO 10 mg/kg): 8.61 h |
| O=c1c2nn(C(F)F)cc2c2cc(F)c(C3CC3)nc2n1-c1cccnc1C1CC1 [Compound B361] | < 100 | 15 | < 200 | 12 | > 3000 | > 10000 |  |  | IC50 [4, 14]: < 500 nM; IC50 [4, 15]: 128 nM; IC50 [5, 16]: ≥ 2000 nM; IC50 [5, 17]: > 10000 nM; AUC ([6]; IV 2 mg/kg): 31.5 µM·h; clearance ([6]; IV 2 mg/kg): 2.42 mL/min/kg; bioavailability ([6]; IV 2 mg/kg, PO 10 mg/kg): 65%; half-life ([6]; IV 2 mg/kg): 6.4 h; Vd ([6]; IV 2 mg/kg): 1.34 L/kg; AUC ([6]; PO 10 mg/kg): 93.4 µM·h; half-life ([6]; PO 10 mg/kg): 8 h |
| N#Cc1cc2c3c[nH]nc3c(=O)n(-c3cccc4[nH]ncc34)c2cc1Cl [Compound B394] | < 100 | 19 | < 200 | 26 | > 3000 | > 10000 |  |  | IC50 ([4]; HCT116-MTAP−/− cells, IC50 class score, read-out: Tumor cell 5-day relative growth inhibition (HCT116-MTAP−/−) (nM), score): < 500 nM; IC50 ([4]; HCT116-MTAP−/− cells, read-out: Tumor cell 5-day relative growth inhibition (HCT116-MTAP−/−)): 359 nM; IC50 ([5]; HCT116-MTAP+/+ cells, IC50 class score, read-out: Tumor cell 5-day relative growth inhibition (HCT116-MTAP+/+) (nM), score): ≥ 2000 nM; IC50 ([5]; HCT116-MTAP+/+ cells, read-out: Tumor cell 5-day relative growth inhibition (HCT116-MTAP+/+)): 6840 nM |
